Assay results published in PubChem BioAssay (NCI).
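Five concentrations, 48 hours, 96-well plates. At the GI50, growth is halved. At the TGI there is no net growth.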

Assays:
Assay in all cases: growth of human tumour cells (NCI), 48 h
COLO 205 colon = system: COLO 205 colon
OVCAR-3 ovarian = system: OVCAR-3 ovarian
SNB-75 CNS = system: SNB-75 CNS
SK-MEL-2 melanoma = system: SK-MEL-2 melanoma
M14 melanoma = system: M14 melanoma
OVCAR-8 ovarian = system: OVCAR-8 ovarian
SN12C renal = system: SN12C renal
NCI-H23 lung = system: NCI-H23 lung
RPMI-8226 leukemia = system: RPMI-8226 leukemia
DU-145 prostate = system: DU-145 prostate

Structure (SMILES) | TGI (COLO 205 colon) [µM] | TGI (OVCAR-3 ovarian) [µM] | TGI (SNB-75 CNS) [µM] | TGI (SK-MEL-2 melanoma) [µM] | TGI (M14 melanoma) [µM] | TGI (OVCAR-8 ovarian) [µM] | TGI (SN12C renal) [µM] | TGI (NCI-H23 lung) [µM] | TGI (RPMI-8226 leukemia) [µM] | GI50 (COLO 205 colon) [µM] | GI50 (OVCAR-3 ovarian) [µM] | GI50 (SNB-75 CNS) [µM] | GI50 (M14 melanoma) [µM] | GI50 (OVCAR-8 ovarian) [µM] | GI50 (SN12C renal) [µM] | GI50 (NCI-H23 lung) [µM] | GI50 (DU-145 prostate) [µM] | TGI (DU-145 prostate) [µM] | GI50 (SK-MEL-2 melanoma) [µM] | GI50 (RPMI-8226 leukemia) [µM]
COc1ccc2nc(NC(=O)C(=O)CC(=O)c3ccc(Cl)cc3)sc2c1 | > 100 | > 100 | 99.1 | > 100 | > 100 | > 100 | > 100 | > 100 |  |  |  |  |  |  |  |  |  |  |  | 
Cc1ccc(S(=O)(=O)OCC23CCC(C4CC42)C2CC23)cc1 (configuration not stated) | > 100 | > 100 |  |  | > 100 | > 100 | > 100 | > 100 | > 100 |  |  |  |  |  |  |  |  |  |  | 
CNS(=O)(=O)NN(C)S(=O)(=O)c1ccc(Br)cc1 | > 100 | > 100 | > 100 | > 100 | > 100 | > 100 | > 100 | > 100 | > 100 |  |  |  |  |  |  |  |  |  |  | 
CC(=O)OC[C@@H]1[C@H]2CC(=O)O[C@H]2C[C@H]1OC(C)=O | > 100 | > 100 | > 100 |  | > 100 | > 100 | > 100 |  | > 100 |  |  |  |  |  |  |  |  |  |  | 
CCCN(CCC)C(=O)Cc1c2n(c3ccccc13)Cc1ccccc1-2 | > 100 | > 100 | > 100 | > 100 | > 100 | > 100 | > 100 | > 100 | > 100 |  |  |  |  |  |  |  |  |  |  | 
CC(=S)NNC(=O)c1ccncc1 | > 100 | > 100 | > 100 | > 100 | > 100 | > 100 | > 100 | > 100 |  |  |  |  |  |  |  |  |  |  |  | 
COc1ccc(C=NC23CC4CC(CC(C4)C2)C3)cc1 | > 10 | > 100 | > 100 | > 100 | > 100 | > 100 | > 100 | > 100 | > 100 |  |  |  |  |  |  |  |  |  |  | 
Clc1cc(Cl)cc(N2N=C(c3cccc(Nc4ccncc4)c3)CC2c2ccc(Br)cc2)c1 (configuration not stated) | 3.86 | 3.21 | 2.98 |  | 3.63 | 4.87 | 3.11 | 3.41 |  | 1.82 | 1.72 | 1.42 | 1.8 | 2.16 | 1.67 | 1.79 | 1.84 | 3.41 |  | 
O=C(Nc1cc(Cl)ccc1O)c1cccc(NC2=C(Cl)C(=O)N(Cc3ccccc3)C2=O)c1 | > 100 | 54.4 |  |  | 36.7 | 38.8 | 33.6 | 33.6 |  | 30.9 | 23.4 |  | 17.8 | 14.5 | 16 | 16.1 | 60.7 | > 100 |  | 
O=C(c1cc(-c2cc3c(cc2C(=O)N2Cc4ccccc4C[C@H]2CN2CCOCC2)OCO3)n2c1CCCC2)N(c1ccccc1)c1ccc(O)cc1 | > 100 | > 100 | > 100 | 54.4 | > 100 | > 100 | > 100 | > 100 |  | 6.71 | 5.55 | 3.61 | 18.1 | 10.6 | 8.6 | 34.8 | 18 | > 100 | 10.2 | 
Cn1c2ccc([N+](=O)[O-])cc2c(=O)c2c(O)cc(O)cc21 | > 100 | > 100 | 34.7 |  | > 100 | 25.9 | > 100 |  | > 100 |  |  |  |  |  |  |  |  | > 100 |  | 
Cc1cc(N/N=C/c2nc(-c3ccccc3)oc2C)c2cc(Cl)ccc2n1 | 3.66 | 3.57 | 3.34 | 38.7 | 3.54 | 4.4 | 3.49 | 3.61 |  | 1.8 | 1.94 | 1.63 | 1.83 | 2.04 | 1.78 | 1.7 | 2.15 | 4.49 | 18.7 | 
O=C(O)c1ccc([N+](=O)[O-])c2c(=O)c3ccccc3[nH]c12 | > 100 |  | > 100 | > 100 | > 100 | > 100 | > 100 |  | > 100 |  |  |  |  |  |  |  |  |  |  | 
COc1ccc(/C=C2\CNC/C(=C\c3ccc(OC)cc3)C2=O)cc1 | > 100 | > 100 | > 100 | > 100 | > 100 | 35.2 | > 100 | 60.1 | > 100 |  |  |  |  |  |  |  |  |  |  | 
Cc1cc(-c2nc3ccc(O)cc3s2)ccc1N | > 100 | > 100 | 71 | > 100 | > 100 | > 100 | > 100 | 43.7 |  | > 100 | 39.3 | 15.8 | 33.1 | > 100 | 39 | 12.5 | 34.1 | > 100 | > 100 | 
Cc1nn2c(/C=C3/C(=O)Nc4ccccc43)c(-c3ccc(Cl)cc3)nc2s1 | > 50 | > 50 |  | > 50 | 36.4 | > 50 |  |  | > 50 | 14.9 | 13.4 |  | 11.5 | 31.9 |  |  |  |  | > 50 | 4.37
O=C1NC2(O)c3ccccc3C(=O)C2(O)N1c1ccccc1 (configuration not stated) | > 100 | > 100 | > 100 | > 100 | > 100 | > 100 |  | > 100 | > 100 |  |  |  |  |  |  |  |  |  |  | 
COc1cc2c(OC)c(c1)CCCC1=CC(=O)C=C(CCC2)C1=O | > 31.6 | 55.1 | > 100 |  | > 64.5 | > 31.6 | > 31.6 | > 100 | 25.9 |  |  |  |  |  |  |  |  | > 100 |  | 
C=CCN=C1N=C(CC(=O)OCC)CS1 | > 100 | > 100 | > 100 | > 100 | > 100 | > 100 | > 100 | > 100 |  |  |  |  |  |  |  |  |  |  |  | 
